Assay results as given in ChEMBL document CHEMBL5143590, “Dihydropyrimidinone imidazoles as unique structural antibacterial agents for drug-resistant gram-negative pathogens” (Eur J Med Chem, 2022).
Converted amounts (≈) assume the structure as drawn.

Legend:
Assay type in all cases: functional
Pseudomonas aeruginosa [1] = assay: Antibacterial activity against Pseudomonas aeruginosa 27853 assessed as inhibition of bacterial growth by two fold serial dilution method
Enterococcus faecalis = assay: Antibacterial activity against Enterococcus faecalis assessed as inhibition of bacterial growth by two fold serial dilution method
Acinetobacter baumannii = assay: Antibacterial activity against Acinetobacter baumannii assessed as inhibition of bacterial growth by two fold serial dilution method
Staphylococcus aureus [2] = assay: Antibacterial activity against methicillin-resistant Staphylococcus aureus N315 assessed as inhibition of bacterial growth by two fold serial dilution method
Staphylococcus aureus [3] = assay: Antibacterial activity against Staphylococcus aureus 29213 assessed as inhibition of bacterial growth by two fold serial dilution method
Klebsiella pneumoniae = assay: Antibacterial activity against Klebsiella pneumoniae assessed as inhibition of bacterial growth by two fold serial dilution method
Staphylococcus aureus [4] = assay: Antibacterial activity against Staphylococcus aureus 25923 assessed as inhibition of bacterial growth by two fold serial dilution method
Pseudomonas aeruginosa [5] = assay: Antibacterial activity against Pseudomonas aeruginosa assessed as inhibition of bacterial growth by two fold serial dilution method
Escherichia coli [6] = assay: Antibacterial activity against Escherichia coli 25922 assessed as inhibition of bacterial growth by two fold serial dilution method
Escherichia coli [7] = assay: Antibacterial activity against Escherichia coli assessed as inhibition of bacterial growth by two fold serial dilution method
Staphylococcus aureus [8] = assay: Antibacterial activity against Staphylococcus aureus assessed as inhibition of bacterial growth by two fold serial dilution method
Candida albicans = assay: Antibacterial activity against Candida albicans 90023 assessed as inhibition of bacterial growth

MIC (Candida albicans) | Compound | MIC (Pseudomonas aeruginosa [1]) | MIC (Enterococcus faecalis) | MIC (Acinetobacter baumannii) | MIC (Staphylococcus aureus [2]) | MIC (Staphylococcus aureus [3]) | MIC (Klebsiella pneumoniae) | MIC (Staphylococcus aureus [4]) | MIC (Pseudomonas aeruginosa [5]) | MIC (Escherichia coli [6]) | MIC (Escherichia coli [7]) | MIC (Staphylococcus aureus [8])
– | CCCCc1nc(Cl)c(C2NC(=O)NC(CN(c3nnc(C)s3)S(=O)(=O)c3ccc(N)cc3)=C2C(=O)OCC)[nH]1 (stereo not drawn) | 64 µg/mL (≈ 105 µM) | 8 µg/mL (≈ 13.1 µM) | 128 µg/mL (≈ 210 µM) | 64 µg/mL (≈ 105 µM) | 128 µg/mL (≈ 210 µM) | 64 µg/mL (≈ 105 µM) | 256 µg/mL (≈ 420 µM) | 64 µg/mL (≈ 105 µM) | 128 µg/mL (≈ 210 µM) | 128 µg/mL (≈ 210 µM) | 128 µg/mL (≈ 210 µM)
– | CCCCc1nc(Cl)c(C2NC(=O)NC(C)=C2C(=O)OCC)n1C (stereo not drawn) | 256 µg/mL (≈ 721 µM) | 128 µg/mL (≈ 361 µM) | 64 µg/mL (≈ 180 µM) | 64 µg/mL (≈ 180 µM) | 64 µg/mL (≈ 180 µM) | 128 µg/mL (≈ 361 µM) | 256 µg/mL (≈ 721 µM) | 64 µg/mL (≈ 180 µM) | 64 µg/mL (≈ 180 µM) | 128 µg/mL (≈ 361 µM) | 32 µg/mL (≈ 90.2 µM)
8 µM (≈ 4.2 µg/mL) | O=c1nc(N(Cc2ccc(Cl)c(Cl)c2)CC(O)(Cn2cncn2)c2ccc(F)cc2F)c(F)c[nH]1 (stereo not drawn) | – | – | – | – | – | – | – | – | – | – | –
– | C=CCn1c(CCCC)nc(Cl)c1C1NC(=O)NC(C)=C1C(=O)OCC (stereo not drawn) | 128 µg/mL (≈ 336 µM) | 64 µg/mL (≈ 168 µM) | 64 µg/mL (≈ 168 µM) | 64 µg/mL (≈ 168 µM) | 64 µg/mL (≈ 168 µM) | 64 µg/mL (≈ 168 µM) | 128 µg/mL (≈ 336 µM) | 64 µg/mL (≈ 168 µM) | 64 µg/mL (≈ 168 µM) | 64 µg/mL (≈ 168 µM) | 32 µg/mL (≈ 84 µM)
– | CCCCc1nc(Cl)c(C2NC(=O)NC(C)=C2C(=O)OCC)n1S(=O)(=O)c1ccccc1 (stereo not drawn) | 64 µg/mL (≈ 133 µM) | 64 µg/mL (≈ 133 µM) | 64 µg/mL (≈ 133 µM) | 128 µg/mL (≈ 266 µM) | 256 µg/mL (≈ 532 µM) | 128 µg/mL (≈ 266 µM) | 128 µg/mL (≈ 266 µM) | 64 µg/mL (≈ 133 µM) | 128 µg/mL (≈ 266 µM) | 64 µg/mL (≈ 133 µM) | 64 µg/mL (≈ 133 µM)
– | CCCCc1nc(Cl)c(C2NC(=O)NC(C)=C2C(=O)OCC)n1Cc1ccc(Cl)c(Cl)c1 (stereo not drawn) | 64 µg/mL (≈ 128 µM) | 64 µg/mL (≈ 128 µM) | 128 µg/mL (≈ 256 µM) | 32 µg/mL (≈ 64 µM) | 64 µg/mL (≈ 128 µM) | 64 µg/mL (≈ 128 µM) | 32 µg/mL (≈ 64 µM) | 128 µg/mL (≈ 256 µM) | 64 µg/mL (≈ 128 µM) | 128 µg/mL (≈ 256 µM) | 32 µg/mL (≈ 64 µM)
– | CCCCc1nc(Cl)c(C2NC(=O)NC(CN(c3nccs3)S(=O)(=O)c3ccc(N)cc3)=C2C(=O)OCC)[nH]1 (stereo not drawn) | 256 µg/mL (≈ 431 µM) | 256 µg/mL (≈ 431 µM) | 256 µg/mL (≈ 431 µM) | 128 µg/mL (≈ 215 µM) | 256 µg/mL (≈ 431 µM) | 256 µg/mL (≈ 431 µM) | 256 µg/mL (≈ 431 µM) | 256 µg/mL (≈ 431 µM) | 256 µg/mL (≈ 431 µM) | 256 µg/mL (≈ 431 µM) | 256 µg/mL (≈ 431 µM)
– | CCCCc1nc(Cl)c(C2NC(=O)NC(CN(c3ccc(OC)nn3)S(=O)(=O)c3ccc(N)cc3)=C2C(=O)OCC)[nH]1 (stereo not drawn) | 16 µg/mL (≈ 25.8 µM) | 64 µg/mL (≈ 103 µM) | 64 µg/mL (≈ 103 µM) | 32 µg/mL (≈ 51.7 µM) | 64 µg/mL (≈ 103 µM) | 16 µg/mL (≈ 25.8 µM) | 64 µg/mL (≈ 103 µM) | 128 µg/mL (≈ 207 µM) | 64 µg/mL (≈ 103 µM) | 128 µg/mL (≈ 207 µM) | 32 µg/mL (≈ 51.7 µM)
– | CCCCc1nc(Cl)c(C2NC(=O)NC(CNS(=O)(=O)c3ccc(N)cc3)=C2C(=O)OCC)[nH]1 (stereo not drawn) | 256 µg/mL (≈ 501 µM) | 256 µg/mL (≈ 501 µM) | 128 µg/mL (≈ 250 µM) | 256 µg/mL (≈ 501 µM) | 256 µg/mL (≈ 501 µM) | 256 µg/mL (≈ 501 µM) | 256 µg/mL (≈ 501 µM) | 256 µg/mL (≈ 501 µM) | 256 µg/mL (≈ 501 µM) | 256 µg/mL (≈ 501 µM) | 128 µg/mL (≈ 250 µM)
– | CCCCc1nc(Cl)c(C2NC(=O)NC(C)=C2C(=O)OCC)n1Cc1ccc(C)cc1 (stereo not drawn) | 64 µg/mL (≈ 144 µM) | 64 µg/mL (≈ 144 µM) | 64 µg/mL (≈ 144 µM) | 128 µg/mL (≈ 288 µM) | 64 µg/mL (≈ 144 µM) | 128 µg/mL (≈ 288 µM) | 64 µg/mL (≈ 144 µM) | 128 µg/mL (≈ 288 µM) | 32 µg/mL (≈ 71.9 µM) | 32 µg/mL (≈ 71.9 µM) | 64 µg/mL (≈ 144 µM)
– | NC1CCN(c2c(F)cc3c(=O)c(C(=O)O)cn(C4CC4)c3c2Cl)C1 (stereo not drawn) [CLINAFLOXACIN] | 1 µg/mL (≈ 2.73 µM) | 0.5 µg/mL (≈ 1.37 µM) | 2 µg/mL (≈ 5.47 µM) | 1 µg/mL (≈ 2.73 µM) | 0.5 µg/mL (≈ 1.37 µM) | 1 µg/mL (≈ 2.73 µM) | 0.5 µg/mL (≈ 1.37 µM) | 1 µg/mL (≈ 2.73 µM) | 1 µg/mL (≈ 2.73 µM) | 0.5 µg/mL (≈ 1.37 µM) | 0.5 µg/mL (≈ 1.37 µM)
– | CCCCc1nc(Cl)c(C2NC(=O)NC(C)=C2C(=O)OCC)n1CCF (stereo not drawn) | 64 µg/mL (≈ 165 µM) | 64 µg/mL (≈ 165 µM) | 64 µg/mL (≈ 165 µM) | 128 µg/mL (≈ 331 µM) | 64 µg/mL (≈ 165 µM) | 128 µg/mL (≈ 331 µM) | 64 µg/mL (≈ 165 µM) | 64 µg/mL (≈ 165 µM) | 128 µg/mL (≈ 331 µM) | 32 µg/mL (≈ 82.7 µM) | 32 µg/mL (≈ 82.7 µM)
– | CCCCc1nc(Cl)c(C2NC(=O)NC(C)=C2C(=O)OCC)n1S(=O)(=O)c1ccc(F)cc1 (stereo not drawn) | 64 µg/mL (≈ 128 µM) | 64 µg/mL (≈ 128 µM) | 64 µg/mL (≈ 128 µM) | 16 µg/mL (≈ 32.1 µM) | 32 µg/mL (≈ 64.1 µM) | 128 µg/mL (≈ 257 µM) | 64 µg/mL (≈ 128 µM) | 32 µg/mL (≈ 64.1 µM) | 32 µg/mL (≈ 64.1 µM) | 32 µg/mL (≈ 64.1 µM) | 64 µg/mL (≈ 128 µM)
